In article PMC12430429, “Synthesis, Structure, DNA/BSA Binding, DNA Cleaving, Cytotoxic and SOD Mimetic Activities of Copper(II) Complexes Derived from Methoxybenzylamine Schiff Base Ligands” (Molecules, 2025):
Like-named read-outs stand apart in the source and are kept apart here.

How the values were obtained:
[1] = system: EB–DNA adduct (ct-DNA); test: EB–DNA displacement method (fluorescence quenching); assay type: binding, calf; conditions: for Stern–Volmer quenching constant Ksv / quenching rate constant kq: EB–DNA adduct; for quenching rate constant kq: τ0 = 23 × 10^−9 s; for Δ I/I0, EB–DNA fluorescence quenching: maximum quenching of EB–DNA emission
Excerpt: Competitive-binding experiments using the ethidium bromide (EB) displacement method from DNA may provide another confirmation of the binding affinity of the complexes. EB is a well-known DNA intercalator able to form an EB–DNA adduct by its insertion between adjacent DNA base pairs. The EB–DNA adduct is distinguished by an intense fluorescence emission band at 615 nm after excitation at 540 nm. Introducing a compound with DNA affinity leads to emission intensity decrease of the EB–DNA adduct as a result of the competition between the measured compound and EB for the binding sites within DNA.
Competitive-binding experiments to determine the displacement of the intercalator ethidium bromide (EB) from the EB–DNA adduct were conducted by fluorescence spectroscopy. To prepare the EB–DNA adduct, 20 μM EB and 54 μM ct-DNA were added to citrate buffer (sodium citrate at 15 mM and sodium chloride at 150 mM at pH = 7.0). The addition of increasing concentrations of complexes 4a–c (c = 1 mM) to a solution of the EB–DNA complex corresponded to the intercalating effect of the complexes. The concentration of the added complexes ranged from 0 to 0.2 mM. Fluorescence emission spectra were recorded in the range of 550–800 nm with an excitation wavelength of 515 nm. […] Quenching of the EB–DNA emission band by the compounds 4a–c was calculated using the Stern–Volmer equation (Equations (2)–(4)).
The extent of the inner-filter effect can be roughly estimated with the following equation:(2) Icorr=Imeas×10^ε(λexc)cd/2×10^ε(λem)cd/2 where Icorr is the corrected intensity, Imeas is the measured intensity, c is the quencher concentration, d is the width of the cuvette (1 cm) and ε(λexc) and ε(λem) are the […] of the quencher at the excitation and the emission wavelength calculated from the UV–Vis spectra of the complexes.
The quenching of the EB–DNA emission band by compounds was calculated via the Stern–Volmer equation:(3) Io/I=1+kqτ0Q=1+KSVQ where Io = the initial fluorescence intensity of the EB–DNA adduct, and I is the fluorescence intensity of the EB–DNA adduct after the addition of the quencher (studied complexes), kq = the quenching rate constant, KSV = the Stern–Volmer constant, τo = the average fluorescence lifetime of the EB–DNA adduct (23 × 10^−9 s), [Q] = the quencher concentration, respectively, KSV (in M^−1) can be obtained by the slope of the Stern–Volmer plot and kq (in M^−1 s^−1) can be calculated from Equation (4):(4) KSV=kqτ0

[2] = system: HEL cells (human lung fibroblast, normal); test: MTT cytotoxicity assay, HEL; assay type: cell-based; conditions: 72 h
Procedure: The cytotoxicity study of the prepared copper(II) complexes was performed using the MTT assay on human cell lines—A549 (adenocarcinoma human alveolar basal epithelial cell line), HepG2 (human liver cancer cell line) and HEL (human lung fibroblast cell line, normal cells).
The cytotoxicity of the prepared copper(II) complexes in human cell lines was evaluated using the 3-(4,5-dimethylthiazol-2-yl)-2,5-diphenyltetrazolium bromide (MTT) assay following the protocol by Mosmann. Briefly, A549 (human lung epithelial cells, carcinoma), HepG2 (human liver epithelial cells, carcinoma) and HEL (human lung fibroblast cells, normal) cells were seeded in plastic 96-well plates at a density of 1.5–2 × 10^4 cells per well. […] After the treatment, the samples were washed with phosphate-buffered saline (PBS), followed by 4 h of incubation with 1 mg/mL of MTT. Subsequently, the MTT solution was removed, and the formed formazane solids were dissolved in dimethyl sulfoxide for 30 min. The photometric evaluation (at 540 nm and 690 nm) was carried out using an xMark™ Microplate Absorbance Spectrophotometer (Bio-Rad, Hercules, CA, USA) [88].
A549 (ATCC® CCL-185), HepG2 (ATCC® HB-8065) and HEL299 (ATCC® CCL-137) cells were obtained from Lambda Life (Bratislava, Slovakia). A549 cells were kept in Dulbecco’s Modified Eagle’s Medium (DMEM) supplemented with 10% fetal bovine serum (FBS) and 1% antibiotics (penicillin and streptomycin). HepG2 cells were kept in Williams medium supplemented with 10% fetal bovine serum (FBS) and 1% antibiotics (penicillin and streptomycin). HEL299 cells were kept in Minimum Essential Medium (MEM) supplemented with 10% fetal bovine serum (FBS), 1% antibiotics (penicillin and streptomycin) and 1% non-essential amino acids (NEAA). The cells were cultured in a humidified atmosphere of 5% CO2 at 37 °C. Once the cells reached approximately 80% confluence, they were harvested and subcultured after trypsin treatment.

[3] = SOD mimetic activity / radical scavenging assay (INT method); assay type: biochemical; conditions: for Activity at c1 (%), inhibition of radical transfer to INT: c1 = 0.572 mM
Procedure: The radical scavenging ability with respect to the SOD mimetic activity of the prepared complexes was determined by the INT method. This method is based on a competitive reaction with the superoxide anion radical from KO2 between the measured compound (complex) and 2-(4-Iodophenyl)-3-(4-nitrophenyl)-5-phenyl-2H-tetrazolium chloride (INT). INT reacts with the single electron of O2^− and produces blue-green formazane detected as light absorption at 500 nm. Complexes with good antiradical activity also react with O2^−, and as a result of this, less formazane is formed.
The first type of antiradical activity measurements involved the determination of inhibition percent values of electron transfer on INT at specific concentrations (Table 9). Two concentrations were selected to achieve good solubility of the complexes (4 and 1 mM for 4a and 4c, 2 and 1 mM for 4b). The complex 4b dissolved readily at a concentration of 4 mM, but the mixture was very dark, making measurements at 500 nm difficult. Therefore, a less concentrated initial solution was used (2 mM) as the higher concentration. In total, 0.5 mL of the initial solutions was used to prepare sample solutions that also contained INT and KO2 solutions and DMSO with an overall volume of 3.5 mL. The resulting concentrations were c1 = 0.572 mM, c1* = 0.286 mM and c2 = 0.143 mM, respectively. Complexes 4a and 4c once again provided high percentages at c1 (approximately 96–99%) but the activity dropped below 24% at c2, while complex 4b maintained mediocre activity at both concentrations. It seems that the concentration increase had only a small effect on the activity of 4b; something similar was also observed in the DNA cleavage study for complex 4b. The complexes were compared with the model compound cystamine, which was used as a standard for superoxide antiradical scavenging due to the presence of a free […] group, which is also present in glutathione.
To improve the comparability of SOD mimetic activity, IC50 concentrations were determined by performing a series of measurements with decreasing concentration. IC50 values were calculated from the trend function equation as the concentration with 50% inhibition of electron transfer on INT (Table 10).
The method is based on the agent 2-(4-Iodophenyl)-3-(4-nitrophenyl)-5-phenyl-2H-tetrazolium chloride (INT), able to scavenge a superoxide radical anion from KO2. The reaction produces a blue-green formazane, which is detected as light absorption at 500 nm. The radical scavengers (measured complexes) compete with INT for radicals and reduce the formation of formazane and light absorption at 500 nm. Antiradical activity was measured on a Synergy HT BioTek spectrophotometer. DMSO was used as the solvent for the complex and KO2 (saturated solution). The INT initial solution (4 M) was prepared in a sodium tetraborate buffer solution with pH adjusted to 7.1 with HCl.
For each measurement, an initial solution of the sample (0.5 mL) of a specific concentration (4–0.1 mM) was prepared in DMSO. Due to the addition of INT (0.5 mL) and KO2 (0.5 mL) solutions and additional DMSO (2 mL), the concentrations of the measured complexes decreased seven times (3.5 mL of total mixture). Each result was the average value of three parallel measurements expressed with a standard deviation (more information in the Supplementary Materials). For the determination of SOD-IC50, several measurements with decreasing sample concentration were performed. […] A linear trend function of the percentage of inhibition and negative logarithm of concentration was used to calculate the SOD-IC50 value as the concentration with 50% inhibition of INT–formazane formation. […]
Green: 5c 5 mM (S. cerevisiae 1x10^9 cells /ml + 0.5 ml 0.9% NaCl + 0.5 ml 5c + 0.1 ml Resazurin OX) measured in time
S6. SOD Mimetic A ctivity A ssay
For each measurement, an initial solution of the sample of a specific concentration was prepared […]

[4] = 50% inhibition of electron transfer on INT, read-out: SOD-IC50

Row | SMILES | Stern–Volmer quenching constant Ksv [1] | quenching rate constant kq [1] | Δ I/I0, EB–DNA fluorescence quenching [1] | IC50 [2] | IC50 [3, 4] | Activity at c1 (%), inhibition of radical transfer to INT [3] | IC50 ([3]; INT method, read-out: concentration of 50% inhibition (SOD-IC50), given as range) | Activity at c1* (%), inhibition of radical transfer to INT ([3]; c1* = 0.286 mM (reduced for complex 4b)) | Activity at c2 (%), inhibition of radical transfer to INT ([3]; c2 = 0.143 mM)
1 | COc1ccccc1CN=Cc1ccccc1[O-].COc1ccccc1CN=Cc1ccccc1[O-].[Cl-].[Cl-].[Cu+2].[Cu+2] [Complex 4a, [Cu2 (Sal-2-MeOBn)2 Cl2]] | 4.58 (±0.10) M^−1 × 10^3 | 1.98 (±0.05) M^−1 s^−1 × 10^11 | 45.7% | 65.9 ± 6.9 µM | 242 ± 1 µM | 95.8 ± 2.2% | – | – | –
2 | COc1cccc(CN=Cc2ccccc2[O][Cu][O]c2ccccc2C=NCc2cccc(OC)c2)c1 [Complex 4b, [Cu (Sal-3-MeOBn)2]] | 3.61 (±0.09) M^−1 × 10^3 | 1.56 (±0.04) M^−1 s^−1 × 10^11 | 40.1% | 44.3 ± 3.6 µM | 1090 ± 56 µM | – | > 1000 µM | 40.1 ± 1.9 * % | 35.8 ± 1.3%
3 | COc1ccc(CN=Cc2ccccc2[O-])cc1.COc1ccc(CN=Cc2ccccc2[O-])cc1.[Cl-].[Cl-].[Cu+2].[Cu+2] [Complex 4c, [Cu2 (Sal-4-MeOBn)2 Cl2]] | 3.82 (±0.12) M^−1 × 10^3 | 1.66 (±0.05) M^−1 s^−1 × 10^11 | 40.7% | 62.9 ± 6.2 µM | 189 ± 11 µM | 98.9 ± 0.5% | – | – | –
